In the oligonucleotide strings, read from the 5' end, every base follows the letter of its sugar. An asterisk marks phosphorothioate; unmarked linkages are phosphodiester. Other units and linkages are bracketed, terminal groups are in braces. A string of capitals states the bases alone. [L-DNA] = L-2'-deoxythymidine (L-thymidine); d = 2'-deoxy (DNA) Where only a bound is given, the exact number is not on record here.

Series [1] has as its system Target RNA. As to the kind of experiment: Tm values of L-thymidine modified oligonucleotides against RNA. It is filed as binding.
Series [2] can be described thus: In vivo nuclease stability of L/D-oligonucleotide chimera, IV bolus, organs analyzed by CGE. The following applies: 24 h after IV bolus, BalbC mouse. The procedure: Here we report the in vivo nuclease stability of L/D-oligonucleotide chimera in mouse. We synthesized the phosphoramidite and CPG derived from L-thymidine, which was synthesized from a novel route [Jung, E. M.; Xu, Y. Tetrahedron Lett. 1997, 24, 4199-4202]. A 20 mer phosphorothioate oligonucleotide ISIS-120745 (antisense to mouse ICAM-1) was capped with L-2′-deoxy thymidine at 3′and 5′-positions. The oligonucleotide was then administered IV bolus into BalbC mouse. After 24 h. mouse was sacrificed and the oligonucleotide was isolated from different organs. Percentage of full-length oligonucleotide present in different organs were analyzed by CGE.

In the case of “ISIS 5132: 5′ TCCCGCTGTGATGCATT 3′ (SEQ ID NO: 6), all P = S; unmodified counterpart of 121785 (dT*dC*dC*dC*dG*dC*dT*dG*dT*dG*dA*dT*dG*dC*dA*dT*dT)”, the “Tm, Target RNA” value in series [1] came to 60.6 °C.

For “ISIS 8651: TGCATCCCCCAGGCCACCAT (SEQ ID NO: 4), all P = S; unmodified counterpart of 120745 (dT*dG*dC*dA*dT*dC*dC*dC*dC*dC*dA*dG*dG*dC*dC*dA*dC*dC*dA*dT)”, the “Tm, Target RNA” value in series [1] was 68.7 °C. For the same substance, the degradation in organs entry in series [2] is on record as “degraded completely”.

In general, ΔTm refers to the shift of the melting midpoint relative to a reference. In the case of “ISIS 120745: 5′ T*GC ATC CCC CAG GCC ACC AT*3′; T* = L-Thymidine, all P = S; antisense to mouse ICAM-1 (antisense TGCATCCCCCAGGCCACCAT; sugars from the 5' end [L-DNA]1 d18 [L-DNA]1, all phosphorothioate, methylation of C not given here)”, in series [1], the “Tm, Target RNA” value worked out at 66.94 °C. Further, in series [1] (relative to the unmodified parent oligonucleotide), the thermal shift (ΔTm) is −1.76 °C. In addition, the “intact full-length oligonucleotide isolated from all the major organs” value in series [2] is given as over 90%.

The values above are taken from US20030158403A1, “Nuclease resistant chimeric oligonucleotides” (ISIS Pharmaceuticals, Inc., priority 2001, published 2003).
